Laboratory results as given in article PMC4442108, “Preclinical Validation of the Heparin-Reactive Peptide p5+14 as a Molecular Imaging Agent for Visceral Amyloidosis” (Molecules, 2015).
Where no end group is shown, it is not given here. [ ]: non-standard residue; d: D form. Tyr(3-I) = N[C@@H](Cc1ccc(O)c(I)c1)C(=O)O

Test system: human AL amyloid extracts
Experiment: Peptide ex vivo amyloid binding assay (pull-down), AL extracts
Settings: for % Bound (mean ± SD): 1 h incubation, PBST, RT, N = 2
Description: Human amyloid tissue extracts were prepared using the water flotation method as described by Pras et al. without modification. Purified amyloid material isolated in the water wash was collected and lyophilized before use.
Twenty-five microliters of 1 mg/mL AL extract, or synthetic rVλ6Wil variable domain fibrils were centrifuged in a 0.5 mL microfuge tube at 21,000× g for 5 min. The supernatant was discarded and pellet resuspended in 200 µL of PBS with 0.05% Tween-20 (PBST). Ten microliters of a 1:100 dilution of ^125I-p5+14 (~100,000 counts per minute (CPM); ~5 ng peptide) stock was added to the suspension. The mixture was rotated at RT for 1 h. Samples were then centrifuged twice at 15,000× g for 10 min. Supernatants and pellets were separated after each step and the radioactivity in each was measured using a Cobra II gamma counter (Perkin Elmer) with a 1 min acquisition. The percentage of ^125I-p5+14 bound to pellet was determined as follows: % Bound = Pellet CPM/(Pellet CPM + Supernatant CPM) × 100

median % bound amongst the test samples (across the human AL and ATTR amyloid extracts of Table 3): 92%
% Bound (mean ± SD) (κ1 AL08 liver extract): 96.35 ± 0.47%
% Bound (mean ± SD) (κ4 AL01 spleen extract): 97.00 ± 0.11%
% Bound (mean ± SD) (λ1 AL03 liver extract): 91.16 ± 0.87%
% Bound (mean ± SD) (λ1 AL07 liver extract): 51.81 ± 0.25%
% Bound (mean ± SD) (λ2 AL02 liver extract): 92.95 ± 0.31%
% Bound (mean ± SD) (λ2 AL02 spleen extract): 96.76 ± 3.65%
% Bound (mean ± SD) (λ2 AL06 liver extract): 89.66 ± 0.91%
% Bound (mean ± SD) (λ2 AL06 spleen extract): 97.11 ± 0.05%
% Bound (mean ± SD) (λ2 AL09 liver extract): 84.99 ± 0.14%
% Bound (mean ± SD) (λ3 AL04 liver extract): 88.44 ± 0.25%
% Bound (mean ± SD) (λ3 AL04 spleen extract): 92.29 ± 0.30%
% Bound (mean ± SD) (λ4 AL05 spleen extract): 95.44 ± 0.03%
Substance: GGG[Tyr(3-I)]SKAQKAQAKQAKQAQKAQKAQAKQAKQAQKAQKAQAKQAKQ [125I-p5+14]
